Measurements: patent publication US20090215710A1, “CARBOHYDRATE BASED TOLL-LIKE RECEPTOR (TLR) ANTAGONISTS” (RELIANCE LIFE SCIENCES PVT. LTD., priority 2007, published 2009)

Target: T1, TLR6 (Homo sapiens, UniProt Q9Y2C9)
T1 construct: endogenous in cells; host or cells: THP-1 monocytes and/or PBMCs
T1 sequence (Q9Y2C9 32-796): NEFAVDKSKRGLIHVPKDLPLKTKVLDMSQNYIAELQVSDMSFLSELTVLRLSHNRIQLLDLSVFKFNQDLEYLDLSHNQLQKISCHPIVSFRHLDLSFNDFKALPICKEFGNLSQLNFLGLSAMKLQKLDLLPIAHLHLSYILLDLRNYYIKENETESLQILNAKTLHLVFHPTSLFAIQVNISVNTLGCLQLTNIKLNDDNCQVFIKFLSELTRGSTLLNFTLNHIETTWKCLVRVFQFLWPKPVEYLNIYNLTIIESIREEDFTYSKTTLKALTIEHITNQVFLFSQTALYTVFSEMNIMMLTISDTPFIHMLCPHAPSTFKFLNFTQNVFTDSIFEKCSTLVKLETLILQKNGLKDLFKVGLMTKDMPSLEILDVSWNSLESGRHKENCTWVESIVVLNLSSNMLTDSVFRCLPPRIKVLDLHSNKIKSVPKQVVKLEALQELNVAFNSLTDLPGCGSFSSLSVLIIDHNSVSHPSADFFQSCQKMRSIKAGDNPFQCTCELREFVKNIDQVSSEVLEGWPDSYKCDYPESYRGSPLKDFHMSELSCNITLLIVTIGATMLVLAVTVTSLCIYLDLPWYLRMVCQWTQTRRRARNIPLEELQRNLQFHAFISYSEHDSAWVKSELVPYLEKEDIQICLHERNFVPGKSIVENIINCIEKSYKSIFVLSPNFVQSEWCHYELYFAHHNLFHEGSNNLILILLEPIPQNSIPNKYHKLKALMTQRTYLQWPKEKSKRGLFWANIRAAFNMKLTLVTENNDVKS
Assay: TLR6 ligand induced TNF-α secretion (ELISA)
Assay type: cell-based
Settings: cells treated with TLR6 ligand 75 ng/ml
Experimental: The present invention has checked the effect of various TLR ligands on THP-1 monocytes, PBMCs and their ability to activate and release TNF-α. For this purpose about 9 TLR ligands were used. These ligands were obtained from Apotech Cat; APO-54N-018-K100 and assayed for TNF-α release in culture supernatants.
THP-1 and PBMCs (2×10^5 cells/well) were plated in 96-well plate. The cells were pretreated with RSCL-0409 in DMSO 1 hr prior to TLR ligand treatment. Following 1 hr pre-treatment, the cells were treated with TLR ligands [TLR2, TLR5 and TLR6-75 ng/ml each, TLR3-75 μg/ml, TLR4-750 ng/ml, TLR7, TLR8 and TLR9-7.5 μg/ml) for 24 hrs. The culture supernatant were collected after the stipulated time and assayed for TNF-α release using a Duoset Enzyme-Linked ImmunoSorbent Assay (ELISA) detection Kit (R&D systems, MN 55413, USA; Cat: DY-210 E). Simultaneously supernatants were collected from cells treated with ligands without pre-treatment with RSCL-0409 and only RSCL-0409 without ligand treatment.

COc1ccc(OC2OC3COC(c4ccccc4)OC3C(OC3OC(COC(=O)CCC(C)=O)C(OC(=O)CCl)C(OC(C)=O)C3OC(C)=O)C2NC(=O)C(Cl)(Cl)Cl)cc1 [RSCL-0409, p-Methoxy phenyl-O-(2,3-di-O-acetyl-4-O-chloroacetyl-6-O-levulinoyl-β-D-glucopyranosyl)-(1-3)-2-deoxy-2-trichloroacetamido-4,6-O-benzylidene-α-D-glucopyranoside]
effect on TNF-α secretion: no effect observed
